Key:
HEK293sieSTAT3(wt) [1] = test: drug sensitivity score (DSS), viability CellTiter-Glo (DSS (dimensionless)); higher = more growth inhibition; extreme values may be limits of the assay; details: 72 h; STAT3 variant: wild type
Summary of the method: (§1)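 Compounds were acoustically pre-plated in 384-well plates at 5 concentrations spaced by 10-fold dilutions, and HEK293 cells overexpressing wild-type or mutant STAT3 and carrying a STAT3-dependent luciferase reporter were added at 100,000 cells/ml in 20 μl. After 72 hours at 37°C and 5% CO2, the plates were read on a PHERAstar FS for CellTox Green fluorescence (485/520 nm) and then CellTiter-Glo luminescence. A drug sensitivity score derived from dose-response curve area was calculated in Breeze from values normalised to negative and positive control wells.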

HEK293sieSTAT3(Y640F) [2] = test: as above; details: 72 h; STAT3 variant: Y640F (constitutively active)
Summary of the method: as §1

HEK293sieSTAT3(wt) [3] = test: drug sensitivity score (DSS), cytotoxicity CellTox Green (DSS (dimensionless)); higher = more cytotoxic; extreme values may be limits of the assay; details: 72 h; STAT3 variant: wild type
Summary of the method: as §1

HEK293sieSTAT3(Y640F) [4] = test: as above; details: 72 h; STAT3 variant: Y640F (constitutively active)
Summary of the method: as §1

## CCOC(=O)CCNc1cc(N2CCc3ccccc3CC2)nc(-c2ccccn2)n1 [GSK-J4] (top concentration tested 100000 nM)
HEK293sieSTAT3(wt) [1]
  drug sensitivity score: 19.4
HEK293sieSTAT3(Y640F) [2]
  drug sensitivity score: 18.8
HEK293sieSTAT3(wt) [3]
  drug sensitivity score: 10.9
HEK293sieSTAT3(Y640F) [4]
  drug sensitivity score: 10.8

## Cc1ccc(C(=O)Nc2ccc(Oc3cc4cnn(C)c4cc3-c3cn[nH]c3)c(F)c2)c(=O)n1-c1ccc(F)cc1 [Merestinib] (top concentration tested 1000 nM)
HEK293sieSTAT3(wt) [1]
  drug sensitivity score: 1.38
HEK293sieSTAT3(Y640F) [2]
  drug sensitivity score: 4.06
HEK293sieSTAT3(wt) [3]
  drug sensitivity score: 0
HEK293sieSTAT3(Y640F) [4]
  drug sensitivity score: 0

## CO[C@@H]1[C@H](N(C)C(=O)c2ccccc2)C[C@H]2O[C@]1(C)n1c3ccccc3c3c4c(c5c6ccccc6n2c5c31)C(=O)NC4 [Midostaurin] (top concentration tested 10000 nM)
HEK293sieSTAT3(wt) [1]
  drug sensitivity score: 4.05
HEK293sieSTAT3(Y640F) [2]
  drug sensitivity score: 5.01
HEK293sieSTAT3(wt) [3]
  drug sensitivity score: 2.79
HEK293sieSTAT3(Y640F) [4]
  drug sensitivity score: 0

## Nc1ccccc1NC(=O)c1ccc(CNC(=O)OCc2cccnc2)cc1 [Entinostat] (top concentration tested 10000 nM)
HEK293sieSTAT3(wt) [1]
  drug sensitivity score: 8.98
HEK293sieSTAT3(Y640F) [2]
  drug sensitivity score: 8.12
HEK293sieSTAT3(wt) [3]
  drug sensitivity score: 1.29
HEK293sieSTAT3(Y640F) [4]
  drug sensitivity score: 0.1

## O=C(NC1CCNCC1)c1n[nH]cc1NC(=O)c1c(Cl)cccc1Cl [AT7519] (top concentration tested 10000 nM)
HEK293sieSTAT3(wt) [1]
  drug sensitivity score: 18.6
HEK293sieSTAT3(Y640F) [2]
  drug sensitivity score: 16.7
HEK293sieSTAT3(wt) [3]
  drug sensitivity score: 12.2
HEK293sieSTAT3(Y640F) [4]
  drug sensitivity score: 4.11

## CC(C)(C)NC(=O)[C@H]1CC[C@H]2[C@@H]3CC[C@H]4NC(=O)C=C[C@]4(C)[C@H]3CC[C@]12C [Finasteride] (top concentration tested 10000 nM)
HEK293sieSTAT3(wt) [1]
  drug sensitivity score: 1.63
HEK293sieSTAT3(Y640F) [2]
  drug sensitivity score: 3.82
HEK293sieSTAT3(wt) [3]
  drug sensitivity score: 1.18
HEK293sieSTAT3(Y640F) [4]
  drug sensitivity score: 0.18

## O=c1sn(-c2cccc3ccccc23)c(=O)n1Cc1ccccc1 [Tideglusib] (top concentration tested 3000 nM)
HEK293sieSTAT3(wt) [1]
  drug sensitivity score: 0.7
HEK293sieSTAT3(Y640F) [2]
  drug sensitivity score: 2.47
HEK293sieSTAT3(wt) [3]
  drug sensitivity score: 0
HEK293sieSTAT3(Y640F) [4]
  drug sensitivity score: 0

## CNC(=O)c1cccc2cc(Oc3ccnc4cc(OCC5(N)CC5)c(OC)cc34)ccc12 [Lucitanib] (top concentration tested 10000 nM)
HEK293sieSTAT3(wt) [1]
  drug sensitivity score: 5.26
HEK293sieSTAT3(Y640F) [2]
  drug sensitivity score: 1.79
HEK293sieSTAT3(wt) [3]
  drug sensitivity score: 7.65
HEK293sieSTAT3(Y640F) [4]
  drug sensitivity score: 0

## COc1cccc2c1C(=O)c1c(O)c3c(c(O)c1C2=O)C[C@@](O)(C(C)=O)C[C@@H]3O[C@H]1C[C@H](N)[C@H](O)[C@H](C)O1 [Daunorubicin] (top concentration tested 1000 nM)
HEK293sieSTAT3(wt) [1]
  drug sensitivity score: 24
HEK293sieSTAT3(Y640F) [2]
  drug sensitivity score: 21.9
HEK293sieSTAT3(wt) [3]
  drug sensitivity score: 0
HEK293sieSTAT3(Y640F) [4]
  drug sensitivity score: 0

## Cc1c(F)cc(C(=O)NC2CC2)cc1-c1ccc(C(=O)NCC(C)(C)C)cn1 [Losmapimod] (top concentration tested 10000 nM)
HEK293sieSTAT3(wt) [1]
  drug sensitivity score: 0
HEK293sieSTAT3(Y640F) [2]
  drug sensitivity score: 0.91
HEK293sieSTAT3(wt) [3]
  drug sensitivity score: 0
HEK293sieSTAT3(Y640F) [4]
  drug sensitivity score: 0

## COc1cc2nccc(Oc3ccc(NC(=O)C4(C(=O)Nc5ccc(F)cc5)CC4)cc3)c2cc1OC [Cabozantinib] (top concentration tested 1000 nM)
HEK293sieSTAT3(wt) [1]
  drug sensitivity score: 1.9
HEK293sieSTAT3(Y640F) [2]
  drug sensitivity score: 0.13
HEK293sieSTAT3(wt) [3]
  drug sensitivity score: 0
HEK293sieSTAT3(Y640F) [4]
  drug sensitivity score: 0

## COCC1(CO)C(=O)C2CCN1CC2 (configuration not stated) [APR-246] (top concentration tested 10000 nM)
HEK293sieSTAT3(wt) [1]
  drug sensitivity score: 1.99
HEK293sieSTAT3(Y640F) [2]
  drug sensitivity score: 0
HEK293sieSTAT3(wt) [3]
  drug sensitivity score: 0
HEK293sieSTAT3(Y640F) [4]
  drug sensitivity score: 0

## O=C(c1cc(Cc2n[nH]c(=O)c3ccccc23)ccc1F)N1CCN(C(=O)C2CC2)CC1 [Olaparib] (top concentration tested 10000 nM)
HEK293sieSTAT3(wt) [1]
  drug sensitivity score: 3.58
HEK293sieSTAT3(Y640F) [2]
  drug sensitivity score: 4.22
HEK293sieSTAT3(wt) [3]
  drug sensitivity score: 0.67
HEK293sieSTAT3(Y640F) [4]
  drug sensitivity score: 0

## CNC(=O)c1ccccc1Nc1cc(Nc2ccc(N3CCOCC3)cc2OC)ncc1C(F)(F)F [VS-4718] (top concentration tested 10000 nM)
HEK293sieSTAT3(wt) [1]
  drug sensitivity score: 7.27
HEK293sieSTAT3(Y640F) [2]
  drug sensitivity score: 8.98
HEK293sieSTAT3(wt) [3]
  drug sensitivity score: 0.44
HEK293sieSTAT3(Y640F) [4]
  drug sensitivity score: 0

## O=C(Nc1cc(Cl)cc2c1[nH]c1cnccc12)c1cccnc1 [PS-1145] (top concentration tested 25000 nM)
HEK293sieSTAT3(wt) [1]
  drug sensitivity score: 3.94
HEK293sieSTAT3(Y640F) [2]
  drug sensitivity score: 0
HEK293sieSTAT3(wt) [3]
  drug sensitivity score: 0.08
HEK293sieSTAT3(Y640F) [4]
  drug sensitivity score: 1.94

## CCCCc1nc2cc(/C=C/C(=O)NO)ccc2n1CCN(CC)CC [Pracinostat] (top concentration tested 10000 nM)
HEK293sieSTAT3(wt) [1]
  drug sensitivity score: 22
HEK293sieSTAT3(Y640F) [2]
  drug sensitivity score: 20.7
HEK293sieSTAT3(wt) [3]
  drug sensitivity score: 14.5
HEK293sieSTAT3(Y640F) [4]
  drug sensitivity score: 9.85

## Cc1cc(Nc2cc(N3CCN(C)CC3)nc(/C=C/c3ccccc3)n2)n[nH]1 [ENMD-2076] (top concentration tested 10000 nM)
HEK293sieSTAT3(wt) [1]
  drug sensitivity score: 10.7
HEK293sieSTAT3(Y640F) [2]
  drug sensitivity score: 9.67
HEK293sieSTAT3(wt) [3]
  drug sensitivity score: 5.35
HEK293sieSTAT3(Y640F) [4]
  drug sensitivity score: 0.61

## Nc1cccc2c1C(=O)N(C1CCC(=O)NC1=O)C2=O (configuration not stated) [Pomalidomide] (top concentration tested 10000 nM)
HEK293sieSTAT3(wt) [1]
  drug sensitivity score: 0
HEK293sieSTAT3(Y640F) [2]
  drug sensitivity score: 0
HEK293sieSTAT3(wt) [3]
  drug sensitivity score: 0
HEK293sieSTAT3(Y640F) [4]
  drug sensitivity score: 0

Reference: the supplement of paper PMC7108870
